Measured values as given in the NIST ThermoML archive (doi:10.1016/j.jct.2013.01.005).
Numbers after ± are expanded uncertainties.

Tests used:
[1] = 101.33 kPa, Liquid, Vibrating tube method
[2] = activity coefficient (dimensionless); of the first substance listed, at infinite dilution; xn = mol fraction of the nth substance listed; conditions: 101 kPa, Liquid, Chromatography, x1 = 0

CCCCCC[N+]1(C)CCCCC1.O=S(=O)([N-]S(=O)(=O)C(F)(F)F)C(F)(F)F
[1]
Conditions	mass density [kg/m3]
293.15 K	1329.53 ± 0.18
298.15 K	1325.41 ± 0.18
303.15 K	1321.3 ± 0.18
308.15 K	1317.2 ± 0.18
313.15 K	1313.11 ± 0.18
318.15 K	1309.04 ± 0.18
323.15 K	1304.98 ± 0.18
328.15 K	1300.93 ± 0.18
333.15 K	1296.9 ± 0.17
338.15 K	1292.88 ± 0.17
343.15 K	1288.87 ± 0.17
348.15 K	1284.87 ± 0.17
353.15 K	1280.88 ± 0.17
358.15 K	1276.91 ± 0.17

CCCCC[N+]1(C)CCCCC1.O=S(=O)([N-]S(=O)(=O)C(F)(F)F)C(F)(F)F
[1]
Conditions	mass density [kg/m3]
293.15 K	1354.47 ± 0.26
298.15 K	1350.13 ± 0.26
303.15 K	1345.85 ± 0.26
308.15 K	1341.7 ± 0.26
313.15 K	1337.54 ± 0.26
318.15 K	1333.36 ± 0.25
323.15 K	1329.2 ± 0.25
328.15 K	1325.05 ± 0.25
333.15 K	1320.89 ± 0.25
338.15 K	1316.75 ± 0.25
343.15 K	1312.6 ± 0.24
348.15 K	1308.46 ± 0.24
353.15 K	1304.36 ± 0.24
358.15 K	1300.26 ± 0.24

CCCCCO [pentan-1-ol] + CCCCCC[N+]1(C)CCCCC1.O=S(=O)([N-]S(=O)(=O)C(F)(F)F)C(F)(F)F
[2]
Conditions	activity coefficient
308.15 K	2.44 ± 0.17
318.15 K	2.23 ± 0.15
328.15 K	2.05 ± 0.14
338.15 K	1.92 ± 0.13
348.15 K	1.8 ± 0.12
358.15 K	1.71 ± 0.11

CCCCCO [pentan-1-ol] + CCCCC[N+]1(C)CCCCC1.O=S(=O)([N-]S(=O)(=O)C(F)(F)F)C(F)(F)F
[2]
Conditions	activity coefficient
308.15 K	2.5 ± 0.17
318.15 K	2.37 ± 0.16
328.15 K	2.2 ± 0.15
338.15 K	2.03 ± 0.14
348.15 K	1.94 ± 0.13
358.15 K	1.79 ± 0.12

CCCC(C)=O [pentan-2-one] + CCCCCC[N+]1(C)CCCCC1.O=S(=O)([N-]S(=O)(=O)C(F)(F)F)C(F)(F)F
[2]
Conditions	activity coefficient
308.15 K	0.573 ± 0.041
318.15 K	0.581 ± 0.041
328.15 K	0.596 ± 0.042
338.15 K	0.613 ± 0.043
348.15 K	0.632 ± 0.044
358.15 K	0.646 ± 0.044

CCCC(C)=O [pentan-2-one] + CCCCC[N+]1(C)CCCCC1.O=S(=O)([N-]S(=O)(=O)C(F)(F)F)C(F)(F)F
[2]
Conditions	activity coefficient
318.15 K	0.611 ± 0.043
328.15 K	0.629 ± 0.043
338.15 K	0.643 ± 0.044
348.15 K	0.666 ± 0.045
358.15 K	0.682 ± 0.046

CCCCC [pentane] + CCCCCC[N+]1(C)CCCCC1.O=S(=O)([N-]S(=O)(=O)C(F)(F)F)C(F)(F)F
[2]
Conditions	activity coefficient
308.15 K	5.95 ± 0.41
318.15 K	5.73 ± 0.39
328.15 K	5.42 ± 0.37
338.15 K	5.3 ± 0.36
348.15 K	5.2 ± 0.35
358.15 K	4.95 ± 0.34

CCCO [propan-1-ol] + CCCCCC[N+]1(C)CCCCC1.O=S(=O)([N-]S(=O)(=O)C(F)(F)F)C(F)(F)F
[2]
Conditions	activity coefficient
308.15 K	2.05 ± 0.14
318.15 K	1.83 ± 0.12
328.15 K	1.67 ± 0.11
338.15 K	1.53 ± 0.1
348.15 K	1.43 ± 0.09
358.15 K	1.33 ± 0.09

CCCO [propan-1-ol] + CCCCC[N+]1(C)CCCCC1.O=S(=O)([N-]S(=O)(=O)C(F)(F)F)C(F)(F)F
[2]
Conditions	activity coefficient
308.15 K	2.05 ± 0.14
318.15 K	1.82 ± 0.12
328.15 K	1.68 ± 0.11
338.15 K	1.55 ± 0.1
348.15 K	1.46 ± 0.1
358.15 K	1.36 ± 0.09

C1CCOC1 [tetrahydrofuran] + CCCCCC[N+]1(C)CCCCC1.O=S(=O)([N-]S(=O)(=O)C(F)(F)F)C(F)(F)F
[2]
Conditions	activity coefficient
308.15 K	0.563 ± 0.04
318.15 K	0.579 ± 0.041
328.15 K	0.594 ± 0.042
338.15 K	0.612 ± 0.043
348.15 K	0.627 ± 0.043
358.15 K	0.635 ± 0.044

C1CCOC1 [tetrahydrofuran] + CCCCC[N+]1(C)CCCCC1.O=S(=O)([N-]S(=O)(=O)C(F)(F)F)C(F)(F)F
[2]
Conditions	activity coefficient
308.15 K	0.617 ± 0.043
318.15 K	0.627 ± 0.043
328.15 K	0.641 ± 0.044
338.15 K	0.653 ± 0.045
348.15 K	0.667 ± 0.045
358.15 K	0.682 ± 0.046

c1ccsc1 [thiophene] + CCCCCC[N+]1(C)CCCCC1.O=S(=O)([N-]S(=O)(=O)C(F)(F)F)C(F)(F)F
[2]
Conditions	activity coefficient
308.15 K	0.614 ± 0.043
318.15 K	0.627 ± 0.043
328.15 K	0.643 ± 0.044
338.15 K	0.655 ± 0.045
348.15 K	0.664 ± 0.045
358.15 K	0.675 ± 0.046

c1ccsc1 [thiophene] + CCCCC[N+]1(C)CCCCC1.O=S(=O)([N-]S(=O)(=O)C(F)(F)F)C(F)(F)F
[2]
Conditions	activity coefficient
308.15 K	0.646 ± 0.044
318.15 K	0.665 ± 0.045
328.15 K	0.673 ± 0.046
338.15 K	0.69 ± 0.046
348.15 K	0.708 ± 0.047
358.15 K	0.722 ± 0.048

Cc1ccccc1 [toluene] + CCCCCC[N+]1(C)CCCCC1.O=S(=O)([N-]S(=O)(=O)C(F)(F)F)C(F)(F)F
[2]
Conditions	activity coefficient
308.15 K	0.864 ± 0.055
318.15 K	0.894 ± 0.057
328.15 K	0.909 ± 0.058
338.15 K	0.934 ± 0.059
348.15 K	0.957 ± 0.06
358.15 K	0.969 ± 0.061

Cc1ccccc1 [toluene] + CCCCC[N+]1(C)CCCCC1.O=S(=O)([N-]S(=O)(=O)C(F)(F)F)C(F)(F)F
[2]
Conditions	activity coefficient
308.15 K	0.91 ± 0.058
318.15 K	0.919 ± 0.058
328.15 K	0.955 ± 0.06
338.15 K	0.975 ± 0.061
348.15 K	1.01 ± 0.06
358.15 K	1.05 ± 0.07

O [water] + CCCCCC[N+]1(C)CCCCC1.O=S(=O)([N-]S(=O)(=O)C(F)(F)F)C(F)(F)F
[2]
Conditions	activity coefficient
308.15 K	5.31 ± 0.36
318.15 K	4.46 ± 0.3
328.15 K	3.81 ± 0.26
338.15 K	3.26 ± 0.22
348.15 K	2.8 ± 0.19
358.15 K	2.45 ± 0.17

O [water] + CCCCC[N+]1(C)CCCCC1.O=S(=O)([N-]S(=O)(=O)C(F)(F)F)C(F)(F)F
[2]
Conditions	activity coefficient
308.15 K	5.05 ± 0.34
318.15 K	4.19 ± 0.29
328.15 K	3.7 ± 0.25
338.15 K	3.18 ± 0.22
348.15 K	2.78 ± 0.19
358.15 K	2.44 ± 0.17
